Measurements published in paper PMC11407783 (Nature cell biology, 2023).

Biological target: KDM3B (Homo sapiens, UniProt Q7LBC6)
Assay: competitive inhibition of purified recombinant KDM3B
Format: biochemical

Sequence of KDM3B (Q7LBC6 whole entry): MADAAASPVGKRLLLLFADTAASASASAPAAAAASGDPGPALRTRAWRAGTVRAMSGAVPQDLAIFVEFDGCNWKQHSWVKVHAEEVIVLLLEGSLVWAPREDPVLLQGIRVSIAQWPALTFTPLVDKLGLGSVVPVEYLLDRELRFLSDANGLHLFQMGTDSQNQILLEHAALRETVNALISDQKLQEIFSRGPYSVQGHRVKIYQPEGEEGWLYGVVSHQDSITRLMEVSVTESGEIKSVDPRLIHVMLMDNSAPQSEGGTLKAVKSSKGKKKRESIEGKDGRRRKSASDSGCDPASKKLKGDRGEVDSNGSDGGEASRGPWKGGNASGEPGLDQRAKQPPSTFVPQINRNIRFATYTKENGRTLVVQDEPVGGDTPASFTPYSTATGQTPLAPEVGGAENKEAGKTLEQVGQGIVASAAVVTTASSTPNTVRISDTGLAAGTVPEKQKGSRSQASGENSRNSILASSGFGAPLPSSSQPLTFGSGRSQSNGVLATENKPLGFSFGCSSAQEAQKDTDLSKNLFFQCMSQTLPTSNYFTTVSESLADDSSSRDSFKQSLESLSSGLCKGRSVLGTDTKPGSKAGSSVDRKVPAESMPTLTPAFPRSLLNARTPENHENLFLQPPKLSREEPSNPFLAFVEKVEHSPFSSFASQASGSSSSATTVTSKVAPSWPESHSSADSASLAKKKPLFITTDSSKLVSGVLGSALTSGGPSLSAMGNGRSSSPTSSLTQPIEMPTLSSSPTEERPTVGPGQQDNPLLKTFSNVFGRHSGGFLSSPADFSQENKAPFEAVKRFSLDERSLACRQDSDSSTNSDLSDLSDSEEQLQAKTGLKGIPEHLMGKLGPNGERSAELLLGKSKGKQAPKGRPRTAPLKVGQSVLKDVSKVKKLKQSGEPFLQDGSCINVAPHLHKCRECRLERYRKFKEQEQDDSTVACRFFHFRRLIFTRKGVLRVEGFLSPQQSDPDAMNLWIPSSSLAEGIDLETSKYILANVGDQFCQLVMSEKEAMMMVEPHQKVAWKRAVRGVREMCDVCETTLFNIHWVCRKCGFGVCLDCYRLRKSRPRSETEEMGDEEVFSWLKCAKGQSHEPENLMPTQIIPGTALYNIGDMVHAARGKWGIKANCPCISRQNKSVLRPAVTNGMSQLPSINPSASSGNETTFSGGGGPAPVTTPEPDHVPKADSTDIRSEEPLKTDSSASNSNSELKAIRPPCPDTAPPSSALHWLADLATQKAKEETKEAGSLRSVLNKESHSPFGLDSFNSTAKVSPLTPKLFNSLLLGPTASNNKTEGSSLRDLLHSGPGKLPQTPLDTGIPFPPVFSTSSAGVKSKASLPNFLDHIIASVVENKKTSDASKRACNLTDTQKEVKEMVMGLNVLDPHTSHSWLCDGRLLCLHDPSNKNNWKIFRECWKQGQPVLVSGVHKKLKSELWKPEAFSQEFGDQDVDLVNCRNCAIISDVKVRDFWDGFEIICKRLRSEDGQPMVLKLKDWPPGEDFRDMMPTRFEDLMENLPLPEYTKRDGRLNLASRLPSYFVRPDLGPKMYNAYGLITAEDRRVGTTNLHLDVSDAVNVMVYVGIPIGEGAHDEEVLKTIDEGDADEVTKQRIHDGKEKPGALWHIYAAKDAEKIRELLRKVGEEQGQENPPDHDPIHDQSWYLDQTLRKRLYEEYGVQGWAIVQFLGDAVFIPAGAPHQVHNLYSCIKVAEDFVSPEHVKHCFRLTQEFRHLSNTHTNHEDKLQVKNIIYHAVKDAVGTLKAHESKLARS

IC50: ~2460 µM
SMILES: O=C(O)CCC(O)C(=O)O (stereo not shown) [R-2HG]
